In experiment [1] the test system is PDE9. The conditions noted are these: cited from earlier work.
Experiment [2] deals with BuChE. Details: method as in PMID 31250747. Conditions: Figure 1; cited from earlier work.
The test system of experiment [3] is AChE. The arrangement: method as in PMID 31250747. Conditions: Figure 1; cited from earlier work.
For experiment [4], the system named is HDAC6. The arrangement: method as in PMID 31441641. The conditions noted are these: Figure 1; cited from earlier work.
Experiment [5] addresses T1, PDE9 (catalytic domain of PDE9A2) (Homo sapiens, UniProt O76083).
T1 construct: PDE9 recombinant catalytic domain (amino acid 181–506); made in house; host or cells: E. coli BL21 (Codonplus)
Nature of the experiment: Enzymatic assay against PDE9 (3H-cGMP hydrolysis, scintillation counting). Type of experiment: biochemical. Conditions: 0.25 h, read-out: Inhibition ratio against PDE9; for inhibition at 0.01 µM: at a concentration of 0.01 μM; for inhibition at 0.1 µM: at a concentration of 0.1 μM. Here is the method:
In brief, E. coli strain BL21 (Codonplus), which carrying with recombinant pET-PDE9A2 plasmid, was grown in LB medium (containing 100 μg/mL ampicillin and 0.4% glucose) at 37 °C until an OD600 achieved 0.6–0.8. Then, the temperature was turned down to 15 °C, and 0.1 mM iso-propyl-b-D-thiogalactopyranoside was added to LB medium to induce the expression of PDE9A2 protein. Bacteria were induced for 20 h and collected for purified PDE9A2 recombinant protein by a Ni-NTA column (Qiagen, Venlo, The Netherlands).
As for the enzymatic assays, ^3H-cGMP (20,000–30,000 cpm, GE Healthcare), the substrate for enzymatic assays against PDE9A2, were diluted in an assay buffer (containing 50 mM Tris-HCl (pH 8.0), 10 mM MgCl2, and 1 mM DTT). And then, the substrate ^3H-cGMP, catalytic domain of PDE9A2, and different concentrations of tested compounds were incubated at room temperature for 15 min. To terminate the reaction, 0.2 M ZnSO4 and 0.2 N Ba(OH)2 were added to the mixture, leaving unreacted ^3H-cGMP in the supernatant. […] Each compound was measured at a minimum of eight concentrations for the IC50 calculation and repeated at least three times.
4.Enzymatic assays against PDE9
The assay buffer contains 50 mM Tris-HCl (pH 8.0), 10 mM MgCl2 or 4 mM MnCl2, 1 mM DTT, and 10-20 nM 3H-cGMP (15000−30000 cpm/assay, CPM control). The reaction was carried out at room temperature for 15 min and then terminated by addition of 0.2 M ZnSO4. The reaction product 3H-GMP was precipitated out by […], whereas unreacted 3H-cGMP remained in the supernatant. The radioactivity in the supernatant was measured in 2.5 […]
(CPMenzyme). For the measurement of IC50 of inhibitors, at least seven concentrations of inhibitors were used in the presence of 3H-cGMP. The enzyme concentration in a range of 10− 100 ng/mL, which hydrolyzed 50- 70% of the substrate, was chosen for each inhibitory assay. The radioactivity was recorded as CPMinhibitor. The IC50 values for PDE9 were calculated using a nonlinear regression analysis.
Inhibition = […] × 100%

A short description of experiment [6]: Antioxidant activity, ORAC-FL method. Conditions: Trolox as standard. How it is done: The modified Oxygen Radical Absorbance Capacity Fluorescein (ORAC-FL) method was used for antioxidant activity test. In brief, the mixture of test compounds (20 μL) and fluorescein (120 μL, final concentration of 150 nM) was added into a black 96-well plate and incubated for 15 min at 37 °C. Then, 60 μL of 2,2′-azobis(2-amidinopropane) dihydrochloride (AAPH) solution (12 mM) was added rapidly to induce the reaction. The fluorescence with an excitation wavelength of 485 nm and emission at 535 nm was measured in Spectrafluor Plus plate reader (Tecan, Crailsheim, Germany) every minute for 4 h. Integration of the area under the curve (AUC) was […] 1 to 8 μM Trolox was used as a standard. Each compound was tested at 1–10 μM at least in three independent assays. The ORAC-FL values of each compound were calculated according to Equation (1) and expressed as Trolox equivalents.(1) ORAC-FL value=AUCsample−AUCblank/AUCTrolox−AUCblank×ConcentrationTrolox/Concentrationsample

[7] abbreviates: Figure 1, current PDE9 inhibitors.

The source of these data is PMC11852235, “Discovery of Effective Inhibitors Against Phosphodiesterase 9, a Potential Therapeutic Target of Alzheimer’s Disease with Antioxidant Capacities” (Antioxidants, 2025).

Usually IC50 stands for the concentration needed to halve the response being measured.

Like-named read-outs stand apart in the source and are kept apart here.

T1 sequence (O76083 241-566): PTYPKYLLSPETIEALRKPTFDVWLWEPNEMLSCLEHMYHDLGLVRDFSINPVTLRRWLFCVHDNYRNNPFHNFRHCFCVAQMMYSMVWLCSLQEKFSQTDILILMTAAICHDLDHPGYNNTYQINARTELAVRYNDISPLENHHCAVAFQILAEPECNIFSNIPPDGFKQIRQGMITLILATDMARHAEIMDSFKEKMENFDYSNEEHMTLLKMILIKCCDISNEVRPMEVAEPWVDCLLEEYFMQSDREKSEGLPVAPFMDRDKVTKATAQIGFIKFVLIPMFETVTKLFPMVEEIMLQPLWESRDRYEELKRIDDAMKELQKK

Turning to `O=c1[nH]c(Cc2ccccn2)nc2c1cnn2C1CCOCC1` [Compound 2, Osoresnontrine], in experiment [1] (setting [7]), the half-maximal inhibitory concentration (IC50) was 65 nM.

With `COc1cc(CNc2nc3c(cnn3C3CCCC3)c(=O)[nH]2)ccc1OC(=O)N(C)C` [Compound 4], the IC50 was 960 nM in experiment [2] and 17 nM in experiment [1] (setting [7]).

With `O=c1[nH]c(COCCC2CCN(Cc3ccccc3)CC2)nc2c1cnn2C1CCCC1` [Compound 5], the results for the IC50 in experiment [3] and in experiment [1] (setting [7]) were 223 nM and 285 nM, respectively.

As for `C[C@@H]1CN(Cc2ccc(C(=O)NO)cc2)C[C@H]1c1nc2c(cnn2C2CCCC2)c(=O)[nH]1` [Compound 6], the IC50 was 40 nM in experiment [4] and 107 nM in experiment [1] (setting [7]).

Take `CC(Cc1n[nH]c2ccccc12)Nc1nc2c(cnn2C2CCCC2)c(=O)[nH]1` (stereo not drawn) [Compound 17g, 6-((1-(1H-indazol-3-yl)propan-2-yl)amino)-1-cyclopentyl-1,5-dihydro-4H-pyrazolo[3,4-d]pyrimidin-4-one]: in experiment [5], the inhibition at 0.01 µM was 70% and the inhibition at 0.1 µM is 82%. In addition, the ORAC in experiment [6] is recorded as 0.17 ± 0.004 μmol of Trolox equiv/μmol tested compound.

Regarding `COc1ccc2[nH]nc(CC(C)Nc3nc4c(cnn4C4CCCC4)c(=O)[nH]3)c2c1` (stereo not drawn) [Compound 17h, 1-cyclopentyl-6-((1-(5-methoxy-1H-indazol-3-yl)propan-2-yl)amino)-1,5-dihydro-4H-pyrazolo[3,4-d]pyrimidin-4-one], in experiment [5], the inhibition at 0.01 µM was found to be 65% and the inhibition at 0.1 µM was 69%. Moreover, the ORAC in experiment [6] is on record as 0.22 ± 0.12 μmol of Trolox equiv/μmol tested compound.

For the compound `C[C@@H](NCc1c[nH]c2ccccc12)c1nc2c(cnn2C2CCCC2)c(=O)[nH]1` [Compound 18a, (R)-6-(1-(((1H-indol-3-yl)methyl)amino)ethyl)-1-cyclopentyl-1,5-dihydro-4H-pyrazolo[3,4-d]pyrimidin-4-one], in experiment [5], the inhibition at 0.01 µM was 46% and the inhibition at 0.1 µM is roughly 50%. Further, the ORAC in experiment [6] was 0.60 ± 0.06 μmol of Trolox equiv/μmol tested compound.

In the case of `C[C@@H](NCc1c[nH]c2ccc(F)cc12)c1nc2c(cnn2C2CCCC2)c(=O)[nH]1` [Compound 18b, (R)-1-cyclopentyl-6-(1-(((5-fluoro-1H-indol-3-yl)methyl)amino)ethyl)-1,5-dihydro-4H-pyrazolo[3,4-d]pyrimidin-4-one], in experiment [5], the inhibition at 0.01 µM worked out at 61% and the inhibition at 0.1 µM came to 76%. For the same compound, the ORAC in experiment [6] is given as 0.88 ± 0.08 μmol of Trolox equiv/μmol tested compound.

Turning to `C[C@@H](NCc1n[nH]c2ccccc12)c1nc2c(cnn2C2CCCC2)c(=O)[nH]1` [Compound 18e, (R)-6-(1-(((1H-indazol-3-yl)methyl)amino)ethyl)-1-cyclopentyl-1,5-dihydro-4H-pyrazolo[3,4-d]pyrimidin-4-one], the inhibition at 0.1 µM in experiment [5] is roughly 50%. Also, the ORAC in experiment [6] is 0.15 ± 0.03 μmol of Trolox equiv/μmol tested compound.

Regarding `COc1ccc2[nH]nc(CN[C@H](C)c3nc4c(cnn4C4CCCC4)c(=O)[nH]3)c2c1` [Compound 18f, (R)-1-cyclopentyl-6-(1-(((5-methoxy-1H-indazol-3-yl)methyl)amino)ethyl)-1,5-dihydro-4H-pyrazolo[3,4-d]pyrimidin-4-one], the inhibition at 0.1 µM in experiment [5] is less than 30%. Moreover, the ORAC in experiment [6] is recorded as 0.24 ± 0.02 μmol of Trolox equiv/μmol tested compound.

In the case of `CC(Nc1nc2c(cnn2C2CCCC2)c(=O)[nH]1)c1ccc(Cl)cc1` (stereo not drawn) [Compound C33], the concentration for half-maximal inhibition (IC50) in experiment [1] (previously reported) is 16 nM.
